Results as given in patent publication US11000033B2, “Ketone or oxime compound, and herbicide” (NISSAN CHEMICAL CORPORATION, priority 2014, dated 2021).

Legend:
Format in all cases: in vivo
[1] = system: Stellaria media; assay: Test Example 5: herbicidal effect by foliage application, plastic box (symbol P); details: 320 g/ha, 3 weeks after application
Procedure, shortened: (§1)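 Visual herbicidal score, taken three weeks post-application, of seedlings sprayed on the foliage with water-diluted emulsion at a predetermined amount; plants were 14 days old, greenhouse-raised at 25° C. to 30° C.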

[2] = system: rice plant; assay: Test Example 5: effect on crop by foliage application, plastic box (symbol b); details: 320 g/ha, 3 weeks after application
Procedure, shortened: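 Foliage-application test plants come from spot sowing in sterilized diluvial soil under a soil layer of about 1.5 cm, grown at 25° C. to 30° C. in a greenhouse.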

[3] = system: Galium spurium; assay: Test Example 4: herbicidal effect by soil treatment (symbol Q); details: for Q: Galium spurium, herbicidal effect grade: 320 g/ha; for Q (Galium spurium) herbicidal effect grade / Herbicidal effect grade, Q: Galium spurium: application herbicide amount 320 g/ha
Procedure, shortened: (§2)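 Seeds were sown in sterilized diluvial soil, covered with about 1.5 cm of soil, and the soil surface was sprayed with a water-diluted emulsion of the compound at a predetermined rate. Plants grew in a greenhouse at 25° C. to 30° C.; effects were scored visually 3 weeks after application.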

[4] = system: Chenopodium album; assay: Test Example 5: herbicidal effect by foliage application, plastic box (symbol O); details: 320 g/ha, 3 weeks after application
Procedure, shortened: as §1

[5] = system: Veronica persica; assay: Test Example 4: herbicidal effect by soil treatment (symbol R); details: for R: Veronica persica, herbicidal effect grade: 320 g/ha; for R (Veronica persica) herbicidal effect grade / Herbicidal effect grade, R: Veronica persica: application herbicide amount 320 g/ha
Procedure, shortened: as §2

[6] = system: Chenopodium album; assay: Test Example 4: herbicidal effect by soil treatment (symbol O); details: for O (Chenopodium album) herbicidal effect grade / Herbicidal effect grade, O: Chenopodium album: application herbicide amount 320 g/ha
Procedure, shortened: as §2

Row | SMILES | P: Stellaria media, herbicidal effect grade [1] | b: directly sowed rice plant, effect on crop grade [2] | Q (Galium spurium) herbicidal effect grade [3] | O: Chenopodium album, herbicidal effect grade [4] | R (Veronica persica) herbicidal effect grade [5] | also measured
1 | CON=C(C)CC1CC(OC(=O)C(C)Oc2ccc(Oc3cnc4cc(Cl)ccc4n3)cc2)=C(c2c(C)cc(C)cc2C)C1=O (stereo not drawn) [1-087] | – | – | – | – | – | P: Stellaria media, herbicidal effect (criteria 0-5) [1]: 3 (Herbicidal ratio of 40% or higher and lower than 70%); b: directly sowed rice plant, effect on crop (criteria 0-5) [2]: 5 (Herbicidal ratio of 90% or more (almost completely withered)); Q: Galium spurium, herbicidal effect grade [3]: 0 (Herbicidal ratio of 5% or lower (almost no effect)); O: Chenopodium album, herbicidal effect (criteria 0-5) [4]: 0 (Herbicidal ratio of 5% or lower (almost no effect)); R: Veronica persica, herbicidal effect grade [5]: 0 (Herbicidal ratio of 5% or lower (almost no effect))
2 | CON=C(CC1CC1)CC1CC(O)=C(c2c(C)cc(C)cc2C)C1=O (stereo not drawn) [1-070] | 0 (Herbicidal ratio of 5% or lower (almost no effect)) | 5 (Herbicidal ratio of 90% or more (almost completely withered)) | 0 (Herbicidal ratio of 5% or lower (almost no effect)) | 1 (Herbicidal ratio of 5% or higher and lower than 20%) | 0 (Herbicidal ratio of 5% or lower (almost no effect)) | O (Chenopodium album) herbicidal effect grade [6]: 0 (Herbicidal ratio of 5% or lower (almost no effect))
3 | CON=C(CC1CC(O)=C(c2c(C)cc(-n3cc(Cl)cn3)cc2C)C1=O)C(C)C (stereo not drawn) [9-004] | 2 (Herbicidal ratio of 20% or higher and lower than 40%) | – | – | 1 (Herbicidal ratio of 5% or higher and lower than 20%) | – | Herbicidal effect grade, O: Chenopodium album [6]: 0 (Herbicidal ratio of 5% or lower (almost no effect)); Herbicidal effect grade, Q: Galium spurium [3]: 0 (Herbicidal ratio of 5% or lower (almost no effect)); Herbicidal effect grade, R: Veronica persica [5]: 0 (Herbicidal ratio of 5% or lower (almost no effect))
4 | CC(=O)CC1CC(O)=C(c2c(C)cc(-c3ncccn3)cc2C)C1=O (stereo not drawn) [7-017] | – | – | – | – | – | Herbicidal effect grade, O: Chenopodium album [6]: 0 (Herbicidal ratio of 5% or lower (almost no effect)); P: Stellaria media, herbicidal effect (criteria of Test Example 1) [1]: 0 (Herbicidal ratio of 5% or lower (almost no effect)); b: directly sowed rice plant, effect on crop (criteria of Test Example 1) [2]: 5 (Herbicidal ratio of 90% or more (almost completely withered)); Herbicidal effect grade, Q: Galium spurium [3]: 0 (Herbicidal ratio of 5% or lower (almost no effect)); O: Chenopodium album, herbicidal effect (criteria of Test Example 1) [4]: 0 (Herbicidal ratio of 5% or lower (almost no effect)); Herbicidal effect grade, R: Veronica persica [5]: 0 (Herbicidal ratio of 5% or lower (almost no effect))
5 | CON=C(C)CC1CC(OC(=O)COc2ccccc2[N+](=O)[O-])=C(c2c(C)cc(C)cc2C)C1=O (stereo not drawn) [1-071] | 0 (Herbicidal ratio of 5% or lower (almost no effect)) | 5 (Herbicidal ratio of 90% or more (almost completely withered)) | 0 (Herbicidal ratio of 5% or lower (almost no effect)) | 1 (Herbicidal ratio of 5% or higher and lower than 20%) | 0 (Herbicidal ratio of 5% or lower (almost no effect)) | –
6 | CC#CC(=O)OC1=C(c2c(C)cc(C)cc2C)C(=O)C(CC(C)=NOC)C1 (stereo not drawn) [1-095] | – | – | – | – | – | O: Chenopodium album, herbicidal effect grade ([6]; 320 g/ha): 0 (Herbicidal ratio of 5% or lower (almost no effect)); P: Stellaria media, herbicidal effect (criteria 0-5) [1]: 2 (Herbicidal ratio of 20% or higher and lower than 40%); b: directly sowed rice plant, effect on crop (criteria 0-5) [2]: 5 (Herbicidal ratio of 90% or more (almost completely withered)); Q: Galium spurium, herbicidal effect grade [3]: 0 (Herbicidal ratio of 5% or lower (almost no effect)); O: Chenopodium album, herbicidal effect (criteria 0-5) [4]: 0 (Herbicidal ratio of 5% or lower (almost no effect)); R: Veronica persica, herbicidal effect grade [5]: 1 (Herbicidal ratio of 5% or higher and lower than 20%)
7 | CON=C(C)CC1CC(OC(=O)C(C)(C)Oc2ccc(Cl)cc2)=C(c2c(C)cc(C)cc2C)C1=O (stereo not drawn) [1-051] | 3 (Herbicidal ratio of 40% or higher and lower than 70%) | 5 (Herbicidal ratio of 90% or more (almost completely withered)) | 0 (Herbicidal ratio of 5% or lower (almost no effect)) | 0 (Herbicidal ratio of 5% or lower (almost no effect)) | – | O (Chenopodium album) herbicidal effect grade [6]: 0 (Herbicidal ratio of 5% or lower (almost no effect))
8 | CON=C(C)CC1CC(OC(=O)COc2ccc(C)cc2)=C(c2c(C)cc(C)cc2C)C1=O (stereo not drawn) [1-072] | 2 (Herbicidal ratio of 20% or higher and lower than 40%) | 5 (Herbicidal ratio of 90% or more (almost completely withered)) | 0 (Herbicidal ratio of 5% or lower (almost no effect)) | 1 (Herbicidal ratio of 5% or higher and lower than 20%) | 0 (Herbicidal ratio of 5% or lower (almost no effect)) | –
9 | CON=C(C)CC1CC(OC(=O)C(C)(C)OC(C)=O)=C(c2c(C)cc(C)cc2C)C1=O (stereo not drawn) [1-034] | – | 5 (Herbicidal ratio of 90% or more (almost completely withered)) | 4 (Herbicidal ratio of 70% or higher and lower than 90%) | 5 (Herbicidal ratio of 90% or more (almost completely withered)) | – | O (Chenopodium album) herbicidal effect grade [6]: 5 (Herbicidal ratio of 90% or more (almost completely withered))
10 | CC(CC1CC(O)=C(c2c(C)cc(C)cc2C)C1=O)=NOCC(C)O (stereo not drawn) [1-027] | 1 (Herbicidal ratio of 5% or higher and lower than 20%) | 5 (Herbicidal ratio of 90% or more (almost completely withered)) | 0 (Herbicidal ratio of 5% or lower (almost no effect)) | 1 (Herbicidal ratio of 5% or higher and lower than 20%) | – | –
11 | CCCCCCCCC(=O)OC1=C(c2c(C)cc(C)cc2C)C(=O)C(CC(C)=NOC)C1 (stereo not drawn) [1-033] | 3 (Herbicidal ratio of 40% or higher and lower than 70%) | 5 (Herbicidal ratio of 90% or more (almost completely withered)) | 3 (Herbicidal ratio of 40% or higher and lower than 70%) | – | 1 (Herbicidal ratio of 5% or higher and lower than 20%) | –
12 | CC(=O)CC1CC(O)=C(c2c(C)cc(Oc3ccccc3)cc2C)C1=O (stereo not drawn) [7-014] | – | – | – | – | – | P: Stellaria media, herbicidal effect (criteria of Test Example 1) [1]: 0 (Herbicidal ratio of 5% or lower (almost no effect)); b: directly sowed rice plant, effect on crop (criteria of Test Example 1) [2]: 3 (Herbicidal ratio of 40% or higher and lower than 70%); Herbicidal effect grade, Q: Galium spurium [3]: 0 (Herbicidal ratio of 5% or lower (almost no effect)); O: Chenopodium album, herbicidal effect (criteria of Test Example 1) [4]: 0 (Herbicidal ratio of 5% or lower (almost no effect)); Herbicidal effect grade, R: Veronica persica [5]: 0 (Herbicidal ratio of 5% or lower (almost no effect))
13 | CON=C(C)CC1CC(OC(=O)COc2cccc(OC)c2)=C(c2c(C)cc(C)cc2C)C1=O (stereo not drawn) [1-068] | 3 (Herbicidal ratio of 40% or higher and lower than 70%) | 5 (Herbicidal ratio of 90% or more (almost completely withered)) | 0 (Herbicidal ratio of 5% or lower (almost no effect)) | 1 (Herbicidal ratio of 5% or higher and lower than 20%) | 0 (Herbicidal ratio of 5% or lower (almost no effect)) | –
14 | CON=C(C)CC1CC(OC(=O)C=Cc2ccco2)=C(c2c(C)cc(C)cc2C)C1=O (stereo not drawn) [1-091] | – | – | – | – | – | P: Stellaria media, herbicidal effect (criteria 0-5) [1]: 0 (Herbicidal ratio of 5% or lower (almost no effect)); b: directly sowed rice plant, effect on crop (criteria 0-5) [2]: 5 (Herbicidal ratio of 90% or more (almost completely withered)); Q: Galium spurium, herbicidal effect grade [3]: 0 (Herbicidal ratio of 5% or lower (almost no effect)); O: Chenopodium album, herbicidal effect (criteria 0-5) [4]: 0 (Herbicidal ratio of 5% or lower (almost no effect)); R: Veronica persica, herbicidal effect grade [5]: 0 (Herbicidal ratio of 5% or lower (almost no effect))
15 | CON=C(C)CC1CC(OC(=O)COc2ccccc2OC)=C(c2c(C)cc(C)cc2C)C1=O (stereo not drawn) [1-067] | 3 (Herbicidal ratio of 40% or higher and lower than 70%) | 5 (Herbicidal ratio of 90% or more (almost completely withered)) | 0 (Herbicidal ratio of 5% or lower (almost no effect)) | 2 (Herbicidal ratio of 20% or higher and lower than 40%) | 0 (Herbicidal ratio of 5% or lower (almost no effect)) | –
